Where no end group is shown, it is not given here.
How the values were obtained:
PAR-2Mut2 receptor [1] = target: T1, PAR-2Mut2 receptor (Homo sapiens, UniProt P55085); test: Calcium release direct measurement (FLIPR), CHO-NFAT-PAR-2Mut2 cells; assay type: cell-based
T1 construct: indeed comprising amino acids 43 to 397 of the precursor of human PAR-2; expressed in transfected cells
T1 sequence (P55085 43-397): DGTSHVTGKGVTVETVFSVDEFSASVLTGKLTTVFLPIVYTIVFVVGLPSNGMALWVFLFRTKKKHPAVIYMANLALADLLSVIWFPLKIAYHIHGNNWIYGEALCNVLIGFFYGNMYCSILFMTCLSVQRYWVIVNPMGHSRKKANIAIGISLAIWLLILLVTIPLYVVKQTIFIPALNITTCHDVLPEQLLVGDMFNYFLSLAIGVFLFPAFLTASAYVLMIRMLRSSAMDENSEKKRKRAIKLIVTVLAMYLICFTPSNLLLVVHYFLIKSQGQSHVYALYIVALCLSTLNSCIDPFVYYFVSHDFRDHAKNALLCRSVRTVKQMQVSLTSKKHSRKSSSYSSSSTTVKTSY
Protocol: (§1) The cells used for these tests were: CHO-NFAT-PAR-2-MUT2, CHO-NFAT-PAR-2-MUT3, CHO-NFAT-PAR2-WT and CHO-NFAT-WT.
(§2) The day before the experiment, the cells, were seeded into 384 well-plate in a medium DMEM glutamax (ref: 61965-026 Invitrogen, fetal calf serum 10% (ref: 10270106 Invitrogen), gentamycin 50 mg/ml 0.25% (ref: 15750-037 Invitrogen) at 25000 cells/well/50 μL.
(§3) The day of the experiment, the medium was discarded (by turning the plate). 50 μl of HBSS (Invitrogen réf: 14025.050), hepes (Invitrogen ref: 15630-05620 mM) were added to each well, HBSS was then discarded by turning the plate. 10 ml of Calcium kit loading solution and 10 ml HBSS, hepes 20 mM and 200 μl probenecid 250 μM were mixed and then 30 μl of this solution was added per well; plates were then incubated during 2 hours at 37° C. 4% CO2. 1.2 μl of a 250 μM compound in 25% DMSO to be tested and 3.8 μl HBSS, hepes 20 mM were added (on the Minitrak Va., Packard), the plates are transferred to the FLIPR and 25 μl 7.2 μM SLIGRL were added.
(§4) The dye is excited with the 488 nm excitation line of the argon laser and emits at 550 nm. The FLIPR quantifies the release of intracellular calcium in real time, the fluorescence is measured during 90 seconds.

PAR-2Mut2 receptor [2] = target: T1, PAR-2Mut2 receptor; test: Beta-lactamase reporter assay, CHO-NFAT-PAR-2Mut2 cells; assay type: cell-based; conditions: FIG. 6
Protocol: In a 96-well or 384-well microplate, […] the wild-type PAR-2 receptor (CHO-NFAT-PAR-2WT) or the CHO-NFAT cells expressing the PAR-2Mut2 receptor (CHO-NFAT-PAR-2mut2), in a proportion of 4×10^4 for a 96-well plate or 1×10^4 for a 384-well plate, for 4 hours, at 37° C., in an atmosphere containing 5% CO2 and in a modified Dulbecco medium (Lifetech, Gaithersburg, Md.) containing 100 μg/ml of gentamycin. The cells were placed in the dark for 1 hour at ambient temperature with 12 μM of CCF4-AM (Aurora Biosciences, San Diego, Calif.). The fluorescence was measured with a Fluostar fluorimeter (BMG, Germany). The excitation occurs at 405 nm and the emission is recorded at both 460 and 535 nm. The fluorescence ratio (460 nm/535 nm) is estimated after elimination of the background noise (medium without cells). The ED50 is considered to be the concentration of SLIGRL-NH2 necessary to achieve 50% of the maximum fluorescence ratio.
The CHO-NFAT-beta-lactamase cells stimulated with SLIGRL-NH2 in the medium mentioned above (4×10^4 cells/well) were used as control. All the reagents were added with the activating agent (chemical or referenced compounds), unless otherwise indicated.

CHO-NFAT cells [3] = test: Beta-lactamase reporter assay, CHO-NFAT control cells; assay type: cell-based
PAR-2Mut3 receptor = target: T2, PAR-2Mut3 receptor (Homo sapiens, UniProt P55085); test: Calcium release direct measurement (FLIPR), CHO-NFAT-PAR2-Mut3 cells; assay type: cell-based
T2 construct: indeed comprising amino acids 57 to 397 of the precursor of human PAR-2; expressed in transfected cells
T2 sequence (P55085 57-397): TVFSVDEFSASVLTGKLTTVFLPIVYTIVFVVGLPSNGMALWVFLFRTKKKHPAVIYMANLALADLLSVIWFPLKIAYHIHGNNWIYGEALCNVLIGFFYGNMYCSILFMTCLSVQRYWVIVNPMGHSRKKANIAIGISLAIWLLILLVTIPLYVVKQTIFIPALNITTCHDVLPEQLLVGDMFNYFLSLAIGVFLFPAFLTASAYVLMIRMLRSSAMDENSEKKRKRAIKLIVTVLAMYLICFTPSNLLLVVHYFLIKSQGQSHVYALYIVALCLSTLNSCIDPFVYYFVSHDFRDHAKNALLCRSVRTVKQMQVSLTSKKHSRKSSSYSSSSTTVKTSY
Protocol: as §1, §2, §3, §4

CHO-NFAT cells [4] = test: Calcium release direct measurement (FLIPR), CHO-NFAT control cells; assay type: cell-based
Protocol: as §1
The day before the experiment, cells were seeded into 384 well-plate in a complete medium at 25000 cells/well/50 μL.
The day after, the medium was discarded (by turning the plate). 50 μl of HBSS, hepes 20 mM were added to each well, HBSS was then discarded by turning the plate. This was done twice.
10 ml of Calcium kit loading solution (solution prepared as described above) and 10 ml HBSS, hepes 20 mM and 200 μl probenecid 250 μM were mixed, and 30 μl of this solution per well were added, plates were incubated during 2 hours at 37° C. 5% CO2.
1.2 μl of compound to be tested (250 μM, 25% DMSO) and 3.8 μl HBSS, hepes 20 mM were added (on the Minitrak Va.). 25 μl 72 nM Trypsin was then added using the FLIPR.
The fluorescence was measured on the FLIPR as specified above.

[5] = target: T3, wild-type PAR-2 receptor expressed on CHO-NFAT cells (CHO-NFAT-PAR-2WT) (human, UniProt P55085 37-397); test: cell-based or functional assay
T3 sequence (looked up): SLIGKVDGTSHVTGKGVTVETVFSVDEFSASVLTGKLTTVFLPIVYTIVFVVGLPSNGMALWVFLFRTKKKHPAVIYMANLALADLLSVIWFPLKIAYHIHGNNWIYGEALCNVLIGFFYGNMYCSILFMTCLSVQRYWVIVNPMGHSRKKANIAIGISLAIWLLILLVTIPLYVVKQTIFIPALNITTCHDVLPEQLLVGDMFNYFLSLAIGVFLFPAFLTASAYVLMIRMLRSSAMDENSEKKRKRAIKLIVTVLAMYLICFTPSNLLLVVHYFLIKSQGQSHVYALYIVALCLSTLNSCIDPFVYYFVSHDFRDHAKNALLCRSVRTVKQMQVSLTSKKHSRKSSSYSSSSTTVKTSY

[6] = target: T4, truncated PAR-2 receptor PAR-2Mut2 expressed on CHO-NFAT cells (CHO-NFAT-PAR-2Mut2) (human, UniProt P55085 43-397); test: cell-based or functional assay
T4 sequence: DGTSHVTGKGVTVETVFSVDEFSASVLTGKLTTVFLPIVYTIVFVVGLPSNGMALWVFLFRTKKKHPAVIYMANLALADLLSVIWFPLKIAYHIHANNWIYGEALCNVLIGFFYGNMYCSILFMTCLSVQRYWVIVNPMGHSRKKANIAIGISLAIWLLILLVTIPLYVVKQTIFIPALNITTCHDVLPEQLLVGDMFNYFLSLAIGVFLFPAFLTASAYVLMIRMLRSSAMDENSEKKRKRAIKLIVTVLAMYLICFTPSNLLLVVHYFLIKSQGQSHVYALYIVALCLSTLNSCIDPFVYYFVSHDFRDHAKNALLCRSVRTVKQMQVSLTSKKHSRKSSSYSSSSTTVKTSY

With “SLIGRL [SLIGRL-NH2, synthetic ligand (Neosystème)]” the “Fluorescence after stimulation, compared with CHO-PAR2-WT cells” value (PAR-2Mut2 receptor [1]; CHO-NFAT-PAR-2Mut2 cells, SLIGRL-NH2 0.1 μM to 100 μM) was “higher”.

In the case of trypsin, the “Activation of cells by trypsin (beta-lactamase fluorescence)” value (PAR-2Mut2 receptor [2]) is reported as “not activated”, the “Activation of cells by trypsin (beta-lactamase fluorescence)” value (CHO-NFAT cells [3]) is reported as “not activated” and the “Activation of cells by trypsin (FLIPR calcium release)” value (from here on “Activation … (FLIPR calcium release)”) (PAR-2Mut2 receptor [1]; CHO-NFAT-PAR2-MUT2 cells) is reported as “not activated”. For the same molecule, the “Activation … (FLIPR calcium release)” value (PAR-2Mut3 receptor) was “not activated” and the “Activation … (FLIPR calcium release)” value (CHO-NFAT cells [4]) was “not activated”.

In the case of SLIGRL-NH2 [SLIGRL-NH2 synthetic ligand], the “ED50 (beta-lactamase reporter, fluorescence ratio 460 nm/535 nM)” value [5] is reported as 10 µM and the “ED50 (beta-lactamase reporter, fluorescence ratio 460 nm/535 nM)” value [6] is reported as 0.2 µM.

From patent US20040082773A1, “Modified PAR receptors, their preparation and their uses for selecting compounds which modulate PAR activity” (Pfizer Inc., priority 2002, published 2004)
